Measurements taken from patent US8323971B2, “Differentiation of pluripotent cells into primary germ layer progenitors” (Cambridge Enterprise Limited, priority 2006, dated 2012).

System: hESCs
Test: Microarray analysis of hESCs grown 36 h in CDM alone or CDM plus BMP4
Type: cell-based, human
Conditions: hESCs 36 h, CDM plus 10 ng/ml BMP4 vs CDM alone
Source text: The change in RNA expression of genes associated with particular cell types is indicated in the following panels. […] In all tables, the ‘margin’ value represents the fold change in mRNA expression (log 2 scale) with a negative value indicating down regulation after BMP4 treatment compared to CDM alone.
Sample RNA was hybridized to Affymetrix hg-u133+2 GeneChips ©. All sample arrays were background corrected, normalized and summarized using default parameters of the RMA model. Array processing was performed using the affy package of the Bioconductor (found on the world wide web at the hypertext protocol transfer address of “bioconductor.org”) suite of software for the R statistical programming language (found on the world wide web at the hypertext protocol transfer address of “r-project.org”). The resulting data set contained processed gene expression values for 54675 probe-sets. Analysis of Differential Regulation: The moderated t-statistic […], implemented in the Limma package of Bioconductor, was employed to assess the significance of differential gene (probe-set) expression between sample groups. In order to reduce errors associated with multiple hypothesis testing on such a scale, the significance p-values obtained were converted to corrected q-values using the FDR method.
Data Visualisation: Heat maps of gene expression were created by importing relevant subsets of RMA processed microarray gene expression data into the dChip v1.3 microarray analysis package (found on the world wide web at the hypertext protocol transfer address of “biostat.harvard.edu/complab/dchip/”). In the case wherein a gene is represented by more than one probe-set on the array, a single probe-set was chosen to represent gene expression in the heat map according to highest mean expression over all samples (i.e. the most reliable sample hybridization regardless of group membership).

Substance: BMP4: Bone Morphogenetic Protein 4 growth factor
- Margin, ACTC mRNA: 4.16 log 2 scale
- Margin, ADRA2A mRNA: −2.49 log 2 scale
- Margin, AGTRL1 mRNA: 4.35 log 2 scale
- Margin, AK3 mRNA: −2.55 log 2 scale
- Margin, ARGBP2 mRNA: −3.43 log 2 scale
- Margin, BAMBI mRNA: 3.86 log 2 scale
- Margin, C2orf31 mRNA: −2.72 log 2 scale
- Margin, C10orf13 mRNA: −2.63 log 2 scale
- Margin, C14orf29 mRNA: −2.44 log 2 scale
- Margin, CACNA2D3 mRNA: −2.42 log 2 scale
- Margin, CDH11 mRNA: 3.81 log 2 scale
- Margin, CFC1 mRNA: 4.45 log 2 scale
- Margin, CHST9 mRNA: −2.54 log 2 scale
- Margin, CLIC5 mRNA: 5.04 log 2 scale
- Margin, COL3A1 mRNA: 4.47 log 2 scale
- Margin, CRH mRNA: 5.13 log 2 scale
- Margin, CUZD1 mRNA: −2.4 log 2 scale
- Margin, CYP26A1 mRNA: −2.51 log 2 scale
- Margin, D21S2088E mRNA: −2.67 log 2 scale
- Margin, DIO2 mRNA: 4.29 log 2 scale
- Margin, DKK4 mRNA: −3.09 log 2 scale
- Margin, DLX2 mRNA: 6.43 log 2 scale
- Margin, DLX5 mRNA: 4.04 log 2 scale
- Margin, DLX6 mRNA: 4.66 log 2 scale
- Margin, EFNA1 mRNA: 4.35 log 2 scale
- Margin, EPAS1 mRNA: 6.2 log 2 scale
- Margin, ETV1 mRNA: −2.49 log 2 scale
- Margin, FLJ25477 mRNA: 4.77 log 2 scale
- Margin, FLJ90231 mRNA: −3.15 log 2 scale
- Margin, FOXA2 mRNA (splice variant): −3.38 log 2 scale
- Margin, FOXF1 mRNA: 4.84 log 2 scale
- Margin, GABRP mRNA: 7.34 log 2 scale
- Margin, GATA3 mRNA: 6.21 log 2 scale
- Margin, GATA5 mRNA: 4 log 2 scale
- Margin, GDF3 mRNA: −3.47 log 2 scale
- Margin, GPR64 mRNA: −2.46 log 2 scale
- Margin, H19 mRNA: 3.98 log 2 scale
- Margin, HAND1 mRNA: 7.27 log 2 scale
- Margin, HAPLN1 mRNA: 8.04 log 2 scale
- Margin, HESX1 mRNA: −2.36 log 2 scale
- Margin, HEY1 mRNA: 3.93 log 2 scale
- Margin, HHEX mRNA: −2.58 log 2 scale
- Margin, HOXB6 mRNA: 5.19 log 2 scale
- Margin, ID4 mRNA: 5.47 log 2 scale
- Margin, IGFBP3 mRNA: 4.44 log 2 scale
- Margin, IPO9 mRNA: −2.83 log 2 scale
- Margin, ISL1 mRNA: 6.5 log 2 scale
- Margin, KAL1 mRNA: −2.98 log 2 scale
- Margin, KCND2 mRNA: −2.74 log 2 scale
- Margin, KCTD12 mRNA: 4.01 log 2 scale
- Margin, KIAA0882 mRNA: 3.81 log 2 scale
- Margin, KLF4 mRNA: −2.4 log 2 scale
- Margin, KRT7 mRNA: 3.91 log 2 scale
- Margin, LCK mRNA: −2.65 log 2 scale
- Margin, LECT1 mRNA: −2.55 log 2 scale
- Margin, LEFTY1 mRNA: −6.56 log 2 scale
- Margin, LEFTY2 mRNA: −3.12 log 2 scale
- Margin, LIX1 mRNA: 4.3 log 2 scale
- Margin, LOC152573 mRNA: −5.04 log 2 scale
- Margin, LOC153469 mRNA: −4.72 log 2 scale
- Margin, LOC387763 mRNA: 4.25 log 2 scale
- Margin, LRAT mRNA: −4.97 log 2 scale
- Margin, LRIG1 mRNA: −2.82 log 2 scale
- Margin, LUM mRNA: 5.88 log 2 scale
- Margin, MAL2 mRNA: −2.37 log 2 scale
- Margin, MEGF10 mRNA: −3.14 log 2 scale
- Margin, MEIS1 mRNA: 4.02 log 2 scale
- Margin, MESP1 mRNA: 4.03 log 2 scale
- Margin, MGC26963 mRNA: −4.02 log 2 scale
- Margin, MSX1 mRNA: 4.28 log 2 scale
- Margin, MSX2 mRNA: 5.43 log 2 scale
- Margin, MYOCD mRNA: 4.49 log 2 scale
- Margin, NANOG mRNA: −3.22 log 2 scale
- Margin, NCRMS mRNA: −2.98 log 2 scale
- Margin, NFE2L3 mRNA: −2.74 log 2 scale
- Margin, NODAL mRNA: −2.93 log 2 scale
- Margin, NOG mRNA: 4.37 log 2 scale
- Margin, OLIG3 mRNA: −3.9 log 2 scale
- Margin, OTX2 mRNA: −4.89 log 2 scale
- Margin, PAPLN mRNA: −3.53 log 2 scale
- Margin, PARG1 mRNA: 4.04 log 2 scale
- Margin, PIPOX mRNA: −2.58 log 2 scale
- Margin, POSTN mRNA: 5.83 log 2 scale
- Margin, PPP2R2B mRNA: −3.6 log 2 scale
- Margin, PRKD1 mRNA: 3.91 log 2 scale
- Margin, PRSS12 mRNA: 4.09 log 2 scale
- Margin, PTPRZ1 mRNA: −2.37 log 2 scale
- Margin, RAM2 mRNA: −2.8 log 2 scale
- Margin, RET mRNA: −2.97 log 2 scale
- Margin, RGS4 mRNA: 3.85 log 2 scale
- Margin, RGS5 mRNA: 4.46 log 2 scale
- Margin, RGS13 mRNA: 4.42 log 2 scale
- Margin, SEMA3C mRNA: 3.89 log 2 scale
- Margin, SFRP1 mRNA: −2.36 log 2 scale
- Margin, SFRP2 mRNA: −2.75 log 2 scale
- Margin, SLC1A6 mRNA: −2.39 log 2 scale
- Margin, SLC16A4 mRNA: 4 log 2 scale
- Margin, SLC40A1 mRNA: 4.19 log 2 scale
- Margin, SNAI2 mRNA: 4.92 log 2 scale
- Margin, SOCS3 mRNA: 3.98 log 2 scale
- Margin, SOX2 mRNA: −3.64 log 2 scale
- Margin, SOX7 mRNA: 4.13 log 2 scale
- Margin, SYNPO2 mRNA: 4.46 log 2 scale
- Margin, TBX3 mRNA: 6.42 log 2 scale
- Margin, TFAP2A mRNA: 4.98 log 2 scale
- Margin, TFCP2L2 mRNA: 3.87 log 2 scale
- Margin, TFCP2L4 mRNA: 4.92 log 2 scale
- Margin, THBS2 mRNA: −3.73 log 2 scale
- Margin, TIMP4 mRNA: −2.9 log 2 scale
- Margin, TMEM46 mRNA: −3.57 log 2 scale
- Margin, TOX mRNA: −3.03 log 2 scale
- Margin, TRIM55 mRNA: 4.24 log 2 scale
- Margin, TRPC4 mRNA: −2.52 log 2 scale
- Margin, UGT8 mRNA: −3.57 log 2 scale
- Margin, USP44 mRNA: −3.63 log 2 scale
- Margin, UTF1 mRNA: −2.47 log 2 scale
